Source: US20060111327A1, “Derivatives of triptolide having a high immunosuppressive effect and high water solubility, and uses thereof” (priority 2002, published 2006)
Where “and” joins values, the source holds several entries; their conditions need not be identical. Equal entries are not always repeated. Where two headings read alike, the source gives them in different places.

Key:
[1] = test system: transplanted heart (C57BL mouse heart grafted into balb/c mouse); conditions: in vivo
[2] = test system: rat adjuvant-induced arthritis; set-up: species or system SD rats; conditions: in vivo
[3] = test system: rat adjuvant-induced arthritis; conditions: in vivo
[4] = test system: cotton ball granulation in rat; set-up: species or system Wister rats; conditions: in vivo
in vivo = conditions: both, Kunming, mouse
physchem = conditions: water
Kunming mice = conditions: both, mouse, in vivo, iv
[5] = background statement; cited from earlier work
[6] = in vivo; cited from earlier work
[7] = Cell membrane permeability (unpublished experimental data); assay type: in vitro ADME; conditions: our unpublished experimental data
iNOS = assay type: cell-based, rat
IL-6 = assay type: cell-based, rat
IL-2 = assay type: cell-based, rat

## CC(C)[C@@]1(O)[C@H](SC#N)C2O[C@]23[C@]2(O[C@H]2C[C@H]2C4=C(CC[C@@]23C)C(=O)OC4)[C@@H]1OC(=O)CCC(=O)O (stereo partly drawn) [WDY6, 12-β-thiocyano-13-α-hydroxy triptolide-14-β-succinic acid mono-ester]
[1]
  Average survival time: 12.7 days
  body weight and appetite of treated mice: did not show a decrease of body weight and their appetites were normal
[2]
  effect on thickness of the contralateral paw (left hind paw): significantly decreased
[3]
  effect in the treatment of adjuvant-induced rat arthritis: significant effect
[4]
  Inhibition of swelling: 42.6% and 47.1% and 49.0%
  effect against cotton ball granulation: significant effect

## C[C@]12CCC(=O)C=C1CC[C@@H]1[C@@H]2[C@@H](O)C[C@@]2(C)[C@H]1CC[C@]2(O)C(=O)CO [Hydrocordisone, reference compound]
[4]
  Inhibition of swelling: 42.2%
  effect against cotton ball granulation: significantly decreased weight of cotton ball granulation

## CC(C)[C@]12OP(=O)([O-])O[C@H]1[C@]13O[C@H]1C[C@H]1C4=C(CC[C@]1(C)[C@@]31OC1[C@H]2SC#N)C(=O)OC4.[Na+] (stereo partly drawn) [WDY1, sodium 12-β-thiocyano triptolide-13-α-14-β-phosphate]
In vivo; acute toxicity LD50
  LD50: 126 mg/kg
In vivo; iv, 95% limit of LD50
  LD50: 119 to 133 mg/kg
In vivo; iv, LD50
  LD50: 126 mg/kg
physchem
  solubility: > 100 mg/mL
[4]
  Inhibition of swelling: 45.7% and 59.3% and 46.3%
  effect against cotton ball granulation: significant effect
Kunming mice; 98 mg/kg
  Death No. of mice: 0
  Mortality: 0%
Kunming mice; 109 mg/kg
  Death No. of mice: 1
  Mortality: 10%
Kunming mice; 122 mg/kg
  Death No. of mice: 4
  Mortality: 40%
Kunming mice; 135 mg/kg
  Death No. of mice: 8
  Mortality: 80%
Kunming mice; 150 mg/kg
  Death No. of mice: 9
  Mortality: 90%

## CC(C)[C@]12O[C@H]1[C@@H]1O[C@]13[C@]1(O[C@H]1C[C@H]1C4=C(CC[C@@]13C)C(=O)OC4)[C@@H]2O [triptolide]
[5]
  water solubility: Low water solubility
[6]
  LD50: 0.85 mg/kg body weight
[7]
  cell membrane permeability: Low cell membrane permeability

## CC(C)[C@]12O[C@H]1C1O[C@]13[C@]1(O[C@H]1C[C@H]1C4=C(CC[C@@]13C)C(=O)OC4)[C@@H]2OP(=O)([O-])[O-].[Na+].[Na+] (stereo partly drawn) [WDY7, disodium triptolide-14-β-phosphate]
In vivo; acute toxicity LD50
  LD50: 0.8 mg/kg
[1]
  Average survival time: 13.8 days
  anti-rejection effect: significant anti-rejection effect
  body weight and appetite of treated mice: did not show a decrease of body weight and their appetites were normal
[3]
  effect in the treatment of adjuvant-induced rat arthritis: significant effect
physchem
  solubility: > 100 mg/mL
[4]
  Inhibition of swelling: 41.5% and 55.6% and 56.8%
  effect against cotton ball granulation: significant effect

## CC(C)[C@]12OP(=O)([O-])O[C@H]1[C@]13O[C@H]1C[C@H]1C4=C(CC[C@]1(C)[C@@]31OC1[C@H]2Cl)C(=O)OC4.[Na+] (stereo partly drawn) [WDY2, sodium 12-β-chlorotriptolide-13-α-14-13-phosphate]
physchem
  solubility: > 100 mg/mL

## CC(C)[C@]12O[C@H]1C1O[C@]13[C@]1(O[C@H]1C[C@H]1C4=C(CC[C@@]13C)C(=O)OC4)[C@@H]2O[PH](=O)[O-].[Na+] (stereo partly drawn) [WDY4, sodium triptolide-14-β-phosphite]
iNOS
  inhibition of mRNA expression of iNOS: completely
physchem
  solubility: > 100 mg/mL
IL-6
  inhibition of mRNA expression of IL-6: completely
IL-2
  inhibition of LPS- or PHA-induced IL-2 mRNA expression: completely inhibited
